Assay results: US20060229433A1, “Modified antiviral peptides with increased activity and cell membrane affinity” (priority 2003, published 2006)
“And” between values parts separate entries of the source, which are not always exact repeats. Equal entries are not always repeated. Square brackets hold non-standard residues; d marks the D form. Peptide text beside a SMILES is read from it. Ava = NCCCCC(=O)O

Legend:
Assay type in all cases: cell-based
HIV-1 NL 4-3 [1] = experiment: HIV-1 infection of C8166 cells (syncytia formation, p24 ELISA) with HIV-1 NL 4-3; parameters: key to syncitia formed, Day 4 / syncitia formed, Day 5 / syncitia formed, Day 6 / syncitia formed, Day 7: ++, +, (+), (+)− and − represent decreasing numbers of syncitia formed; ++, +, (+), (+)− and − represent decreasing numbers of syncitia formed; ++, +, (+), (+)− and − represent decreasing numbers of syncitia formed; ++, +, (+), (+)− and − represent decreasing numbers of syncitia formed; ++, +, (+), (+)− and − represent decreasing numbers of syncitia formed
Method in brief: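 C8166 T-cells were preincubated with peptide for 1 h at 37 °C, then exposed for 1 h to HIV-1 at 1000 TCID50/ml, washed, and cultured with peptide kept present throughout, with medium replaced at day 4. Infection was scored by syncytia formation and by supernatant p24 ELISA, with at least two runs in duplicate.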

HIV-1 NL 4-3 [2] = experiment: as above; parameters: key: ++, +, (+), (+)− and − represent decreasing numbers of syncitia formed; ++, +, (+), (+)− and − represent decreasing numbers of syncitia formed; ++, +, (+), (+)− and − represent decreasing numbers of syncitia formed; ++, +, (+), (+)− and − represent decreasing numbers of syncitia formed; ++, +, (+), (+)− and − represent decreasing numbers of syncitia formed; conditions: Table 6
Experimental: (§1) HIV-1 NL 4-3 isolate (Adachi et al., 1986; Barré-Sinoussi et al., 1983) and highly cytopathic Zairian HIV-1 NDK isolate (Ellrodt et al., 1984) was propagated in permissive CEM cells (Nara et al., 1987). Uninfected CEM and C8166 (Salahuddin et al., 1983) were maintained in RPMI 1640 (R10) with ultraglutamine (cambrex, Vervier, Belgium), penicillin (100 U/ml), streptomycin (100 μg/ml), and 10% heat-inactivated fetal calf serum (Cambrex).
(§2) Samples of 3×10^5/100 μL C8166 cells were preincubated in 96-well microtiter plates in culture medium containing various concentrations of peptide. After a 1 h treatment at 37° C., 100 μl of diluted viral solution of HIV-1 was added. The cells were exposed to the virus for 1 h at 37° C. at a multiplicity of infection of 1000 TCID50 per ml. The cells were washed three times and cultured at 3×10^5/ml of R10 with the treatment in 24-well plates incubated at 37° C. C8166 culture medium was replaced at Day-4 post-infection. The treatment was permanent before virus adsorption, during virus adsorption and after infection. Assays on C8166 cells have been performed at least twice and in duplicate. Toxicity was evaluated by daily cell count and trypan-blue exclusion assay. Infection of C8166 T-cells with HIV-1 was assessed by virus-induced cytopathic effects (syncytia formation) and by quantification of cell free p24 viral protein in the culture supernatants. Measurements of HIV-1 p24^gag concentration in the culture supernatants were achieved by ELISA (ALLIANCE® HIV-1 p24 kit, Perkin Elmer, life sciences, USA).

HIV-1 NDK = experiment: HIV-1 infection of C8166 cells (syncytia formation, p24 ELISA) with HIV-1 NDK; parameters: key to syncitia formed, Day 4 / syncitia formed, Day 5 / syncitia formed, Day 6 / syncitia formed, Day 7: ++, +, (+), (+)− and − represent decreasing numbers of syncitia formed; ++, +, (+), (+)− and − represent decreasing numbers of syncitia formed; ++, +, (+), (+)− and − represent decreasing numbers of syncitia formed; ++, +, (+), (+)− and − represent decreasing numbers of syncitia formed; ++, +, (+), (+)− and − represent decreasing numbers of syncitia formed; conditions: for P 24: P 24 after Day 7
Experimental: as §1, §2

[3] = C8166 cells, HIV-1 subtype B NL 4-3, Table 9, two lines = tested twice, 8 days apart

## NCC(=O)N1CCC[C@H]1C(=O)NCC(=O)NCCCCC(=O)O [GPG valeric acid, GPG-NHCH2CH2CH2CH2COOH] (H-GPG[Ava]-OH; N-terminus assumed)
HIV-1 NL 4-3 [1]; 0.005 μM, Table 6
  Day 7 syncitia formed: ++/T
HIV-1 NL 4-3 [1]; 0.01 μM, C8166 cells
  syncitia formed, Day 4: −
  syncitia formed, Day 5: (+)
  syncitia formed, Day 6: +
HIV-1 NL 4-3 [1]; 0.01 μM, Day 7, C8166 cells
  syncitia formed, Day 7: ++
HIV-1 NL 4-3 [1]; 0.05 μM, C8166 cells
  syncitia formed, Day 4: −
  syncitia formed, Day 5: −
  syncitia formed, Day 6: (+)
HIV-1 NL 4-3 [1]; 0.05 μM, Day 7, C8166 cells
  syncitia formed, Day 7: +
HIV-1 NL 4-3 [1]; 0.05 μM, P 24 after Day 7, C8166 cells
  P 24: 3810 pg/mL and 2300 pg/mL
HIV-1 NL 4-3 [1]; 0.1 μM, C8166 cells
  syncitia formed, Day 4: −
  syncitia formed, Day 5: −
  syncitia formed, Day 6: (+)
HIV-1 NL 4-3 [1]; 0.1 μM, Day 7, C8166 cells
  syncitia formed, Day 7: +
HIV-1 NL 4-3 [1]; 0.1 μM, P 24 after Day 7, C8166 cells
  P 24: 108 pg/mL and 130 pg/mL
HIV-1 NL 4-3 [1]; 0.5 μM, C8166 cells
  syncitia formed, Day 4: −
  syncitia formed, Day 5: −
  syncitia formed, Day 6: −
HIV-1 NL 4-3 [1]; 0.5 μM, Day 7, C8166 cells
  syncitia formed, Day 7: (+)
HIV-1 NL 4-3 [1]; 1 μM, C8166 cells
  syncitia formed, Day 4: −
  syncitia formed, Day 5: −
  syncitia formed, Day 6: −
HIV-1 NL 4-3 [1]; 1 μM, Day 7, C8166 cells
  syncitia formed, Day 7: −
HIV-1 NL 4-3 [1]; 1 μM, P 24 after Day 7, C8166 cells
  P 24: 86 pg/mL and 74 pg/mL
HIV-1 NL 4-3 [1]; 5 μM, C8166 cells
  syncitia formed, Day 4: −
  syncitia formed, Day 5: −
  syncitia formed, Day 6: −
HIV-1 NL 4-3 [1]; 5 μM, Day 7, C8166 cells
  syncitia formed, Day 7: −
HIV-1 NL 4-3 [1]; 5 μM, P 24 after Day 7, C8166 cells
  P 24: 60 pg/mL and 34 pg/mL
HIV-1 NL 4-3 [1]; [3]
  IC50: 10 nM
  IC100: 0.5 µM and 1 µM
HIV-1 NL 4-3 [1]; Day 7, 0.005 μM, Table 6
  P 24: 23810 pg/mL
HIV-1 NL 4-3 [1]; Day 7, 0.01 μM, Table 6
  P 24: 11810 pg/mL and 13740 pg/mL
HIV-1 NL 4-3 [1]; Day 7, 0.5 μM, Table 6
  P 24: 3.5 pg/mL and 5.6 pg/mL
HIV-1 NL 4-3 [1]; Day 7, 1 μM, Table 6
  P 24: 5.636 pg/mL and 4.8 pg/mL
HIV-1 NL 4-3 [1]; Day 7, 5 μM, Table 6
  P 24: 5.6 pg/mL and 3.2 pg/mL
HIV-1 NL 4-3 [2]; 0.005 μM
  Day 4 syncitia formed: −
  Day 5 syncitia formed: +
  Day 6 syncitia formed: ++
HIV-1 NL 4-3 [2]; 0.01 μM
  Day 4 syncitia formed: −
  Day 5 syncitia formed: +
  Day 6 syncitia formed: +
  Day 7 syncitia formed: ++
HIV-1 NL 4-3 [2]; 0.05 μM
  Day 4 syncitia formed: −
  Day 5 syncitia formed: −
  Day 6 syncitia formed: (+)
  Day 7 syncitia formed: +
HIV-1 NL 4-3 [2]; 0.1 μM
  Day 4 syncitia formed: −
  Day 5 syncitia formed: −
  Day 6 syncitia formed: (+)
  Day 7 syncitia formed: +
HIV-1 NL 4-3 [2]; 0.5 μM
  Day 4 syncitia formed: −
  Day 5 syncitia formed: −
  Day 6 syncitia formed: −
  Day 7 syncitia formed: −
HIV-1 NL 4-3 [2]; 1 μM
  Day 4 syncitia formed: −
  Day 5 syncitia formed: −
  Day 6 syncitia formed: −
  Day 7 syncitia formed: −
HIV-1 NL 4-3 [2]; 5 μM
  Day 4 syncitia formed: −
  Day 5 syncitia formed: −
  Day 6 syncitia formed: −
  Day 7 syncitia formed: −
HIV-1 NDK; 0.005 μM
  syncitia formed, Day 4: (+)
  syncitia formed, Day 5: +
  syncitia formed, Day 6: ++
  syncitia formed, Day 7: ++
  P 24: 23810 pg/mL
HIV-1 NDK; 0.01 μM
  syncitia formed, Day 4: (+)
  syncitia formed, Day 5: +
  syncitia formed, Day 6: ++
  syncitia formed, Day 7: ++
  P 24: 23810 pg/mL
HIV-1 NDK; 0.05 μM
  syncitia formed, Day 4: −
  syncitia formed, Day 5: (+)
  syncitia formed, Day 6: ++
  syncitia formed, Day 7: ++
  P 24: 11810 pg/mL and 15879 pg/mL
HIV-1 NDK; 0.1 μM
  syncitia formed, Day 4: −
  syncitia formed, Day 5: −
  syncitia formed, Day 6: +
  syncitia formed, Day 7: ++
  P 24: 3507 pg/mL and 3670 pg/mL
HIV-1 NDK; 0.5 μM
  syncitia formed, Day 4: −
  syncitia formed, Day 5: −
  syncitia formed, Day 6: +
  syncitia formed, Day 7: ++
  P 24: 2578 pg/mL and 3140 pg/mL
HIV-1 NDK; 1 μM
  syncitia formed, Day 4: −
  syncitia formed, Day 5: −
  syncitia formed, Day 6: −
  syncitia formed, Day 7: +
  P 24: 2810 pg/mL and 1840 pg/mL
HIV-1 NDK; 5 μM
  syncitia formed, Day 4: −
  syncitia formed, Day 5: −
  syncitia formed, Day 6: −
  syncitia formed, Day 7: (+)
  P 24: 284 pg/mL and 217 pg/mL
HIV-1 NDK; HIV 1 NDK, Table 10
  IC50: 20 nM
  IC100: 5 µM
